# The NIST ThermoML archive (doi:10.1021/je060348v)
# ± gives the expanded uncertainty stated by the source.
# Details: Crystal; visual observation
smiles,measurement,value
OC[C@@H](O)[C@H](O)[C@@H](O)CO [xylitol],Normal melting temperature,94.50 ± 1 °C
